Results from patent publication US11465995B2, “Crystal and salt forms of tricyclic compound and preparation process thereof” (SHIJIAZHUANG SAGACITY NEW DRUG DEVELOPMENT COMPANY, LTD., priority 2018, dated 2022).
Where “and” joins values, the source holds several entries; their conditions need not be identical. Identical values can stand only once. Blank lines part the entries; values can stand above or below the compound they belong to.

What was measured:
S1P1 receptor = target: T1, S1P1 receptor (Homo sapiens, UniProt P21453); experiment: S1P1 receptor agonistic activity test (PathHunter cell line); type: cell-based; conditions: agonist mode
T1 construct: expressed in transfected cells
Procedure: I. Cells Treatment • 1. PathHunter cell line was thawed according to standard procedures. • 2. The cells were inoculated in 20 μl 384-well microplates and incubated at 37° C. for appropriate time.
II. Agonist • 1. For the agonist assay, the cells were incubated with the testing sample to induce the reaction. • 2. The stock solution had been diluted 5 times with the buffer. • 3. 5 μl of 5-fold dilution was added into the cells, which were incubated at 37° C. for 90-180 min with the vehicle concentration of 1%.
III. Signal Detection • 1. 12.5 μl or 15 μl of PathHunter detection reagent at a volume ratio of 50% was added in one portion, then incubation at room temperature was performed for 1 h to generate detection signal. • 2. The PerkinElmer Envision™ instrument was used to read the microplate for chemiluminescence signal detection.
IV. Data Analysis • 1. CBIS data analysis kit was used to analyze the activity of the compound. • 2. Calculation formula: % Activity=100%×(average RLU of testing sample−average RLU of vehicle)/(average RLU of maximum control ligand−average RLU of vehicle) The results were shown in Table 3.

[1] = Pharmacokinetic evaluation in SD rats; type: in vivo; conditions: Sprague Dawley, rat, plasma, 3 mg/kg, male, intravenous injection and oral administration, Ozanimod at 3 mpk; for bioavailability: read-out: Bioavailability F (%); for AUC: read-out: Concentration Integration AUC; for half-life: read-out: Half-life T1/2 (converted)
Procedure: This Example is provided to test pharmacokinetics of compounds in SD rats.
Materials: Sprague Dawley rats (male, 200-300 g, 7-9 weeks, Shanghai SLAC)
Procedures: The rodent pharmacokinetic characteristics of the compound after intravenous injection and oral administration were tested according to standard protocol. In the test, the candidate compound was formulated as a clear solution, and the rats were given a single intravenous injection and oral administration. The intravenous and oral vehicles were a hydroxypropyl β cyclodextrin aqueous solution in a certain proportion or normal saline solution. The whole blood sample within 24 h was collected, centrifuged at 3000 g for 15 min, and the supernatant was separated to give the plasma sample. 4 volumes of acetonitrile solution containing internal standard was added to precipitate protein and after centrifugation the supernatant was collected and added with equal volume of water. After further centrifugation, the supernatant was used for injection. Quantitative analysis of blood drug concentration was done by LC-MS/MS analysis method and pharmacokinetic parameters were calculated, such as Cmax, Tmax, clearance, half-life, area under the curve of drug concentration-time, bioavailability, etc.

blood lymphocytes = experiment: Effects of single oral administration on blood lymphocytes in rats; type: in vivo, SD rats; conditions: for Percentage of lymphocytes in white blood cells in a unit volume of blood (%) / Rate of change of lymphocytes in blood after administration (%): mean ± SEM
Procedure: Normal SPF grade male SD rats were administered by single oral gavage. The experiment contained five groups: the vehicle control group, the reference compound Ozanimod group, Compound 1-0.3 mg/kg dose group, Compound 1-1.0 mg/kg dose group, Compound 1-3 mg/kg dose group. Blood was collected 0.5 h before administration and 4, 8, 24 h after administration, and anticoagulated with 10% K2-EDTA. The anticoagulated blood sample was placed in 4° C. environment, diluted 1:4 with normal saline, and quickly tested with a hematology analyzer to calculate the number of lymphocytes per liter of blood and the percentage in the total white blood cells. Graphpad prism 6.0 software was used to calculate the mean±standard error, and the two-way ANOVA test was used to test the significance of the difference. When p<0.05, there was a significant difference between two groups.

[2] = tested on: TNBS-induced acute infectious bowel disease (IBD) model; experiment: Pharmacodynamic test on TNBS-induced acute infectious bowel disease (IBD) model in female SD rats; type: in vivo; design: Ulcer score / Inflammation score / Total injury score: scale not given here; conditions: for Injury area (cm^2) / Ulcer area (cm^2) / Inflammation score / Total injury score / Ulcer score: mean ± sem; for Inflammation score / Total injury score / Ulcer score: colon pathological test
Procedure: Female SD rats were divided into 7 groups, that is, model group, prednisolone-10 mg/kg group, Ozanimod-0.3 mg/kg group, Ozanimod-1.0 mg/kg group, Compound 1-0.1 mg/kg group, Compound 1-0.3 mg/kg group, Compound 1-0.6 mg/kg group. All animals were deeply anesthetized with pentobarbital sodium, and TNBS-50% alcohol solution was inserted into the intestinal cavity from the anus for modeling. The animal's anus was squeezed, and the animal was allowed to stand upside down for 5 min. The animals were returned to the cage after assured to be leak free.
The test compounds were administered orally 1 h after modeling, once a day for 7 days. The model group was given an equal volume of drug vehicle. The animals were weighed daily before administration of the test compound and were monitored for daily fecal traits and given clinical observation scores. The day after the last administration, all animals were euthanized. The colons were collected (anal to nodular part), the length and weight of the colons were measured, and the gross anatomical scores of the lesion sizes was taken. The gross anatomical images of the colon lesions were recorded, and the tissues were fixed in 10% neutral formalin solution and were subjected to histopathological analysis.

[3] = Stability test of Crystal Form A solid (accelerated, 40° C./75% humidity, open); type: physicochemical
Procedure: Crystal Form A was placed in an opening container with constant temperature and humidity for accelerated test, under the conditions of 40° C./75% humidity (open). Samples were taken at 1st, 2nd, 3rd month for testing, and the test results were compared with initial results of day 0.

[4] = 1.0 mg/kg single oral, −0.5 h (before administration)
[5] = 0.1 mg/kg oral once a day for 7 days
[6] = 0.3 mg/kg oral once a day for 7 days
[7] = 0.6 mg/kg oral once a day for 7 days
[8] = 40° C./75% humidity (Open), 1 month
[9] = 40° C./75% humidity (Open), 2 months
[10] = 40° C./75% humidity (Open), 3 months
[11] = 1.0 mg/kg oral once a day for 7 days
[12] = 10 mg/kg oral once a day for 7 days

T1 sequence (P21453 whole entry): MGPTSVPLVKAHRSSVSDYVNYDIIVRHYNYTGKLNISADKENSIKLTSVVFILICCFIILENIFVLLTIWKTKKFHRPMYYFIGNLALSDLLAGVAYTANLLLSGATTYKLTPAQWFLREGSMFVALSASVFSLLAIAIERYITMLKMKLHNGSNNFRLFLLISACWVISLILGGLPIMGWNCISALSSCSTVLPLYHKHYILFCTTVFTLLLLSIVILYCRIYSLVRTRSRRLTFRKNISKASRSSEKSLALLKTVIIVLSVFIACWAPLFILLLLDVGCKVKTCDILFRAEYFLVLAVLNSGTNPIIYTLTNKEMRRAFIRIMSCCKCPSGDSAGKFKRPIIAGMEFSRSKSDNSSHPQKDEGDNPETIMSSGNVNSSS

EC50 (S1P1 receptor): < 10 nM
clearance [1]: 11.5 mL/min/kg
bioavailability [1]: 85.8%
AUC [1]: 6.83 µM·h
half-life [1]: 3.46 h
SMILES: CC(C)Oc1ccc(-c2nc(-c3cccc4c3C[C@@H]3CC(=O)N(CCO)[C@H]43)no2)cc1C#N (single isomer, unassigned) [Compound 1]
Percentage of lymphocytes in white blood cells in a unit volume of blood (%) (blood lymphocytes; 0.3 mg/kg single oral, 4 h): 52.08 ± 3.35^&&& %
Rate of change of lymphocytes in blood after administration (%) (blood lymphocytes; 0.3 mg/kg single oral, 4 h, vs same group before administration): −59.57 ± 2.01 %
maximum decreasing rate of the number of blood lymphocytes (blood lymphocytes; 0.3 mg/kg single oral, 8 h): 66.87%
Percentage of lymphocytes in white blood cells in a unit volume of blood (%) (blood lymphocytes; 0.3 mg/kg single oral, 8 h): 46.71 ± 3.72^*#&&&& %
Rate of change of lymphocytes in blood after administration (%) (blood lymphocytes; 0.3 mg/kg single oral, 8 h): −66.87 ± 1.97 %
blood lymphocyte decreasing rate (blood lymphocytes; 0.3 mg/kg single oral, 24 h): −44.98%
Percentage of lymphocytes in white blood cells in a unit volume of blood (%) (blood lymphocytes; 0.3 mg/kg single oral, 24 h): 63.86 ± 1.70%
Rate of change of lymphocytes in blood after administration (%) (blood lymphocytes; 0.3 mg/kg single oral, 24 h): 44.98 ± 16.62 %
Percentage of lymphocytes in white blood cells in a unit volume of blood (%) (blood lymphocytes; 0.3 mg/kg single oral, −0.5 h (before administration)): 59.12 ± 2.19%
Percentage of lymphocytes in white blood cells in a unit volume of blood (%) (blood lymphocytes; 1.0 mg/kg single oral, 4 h): 36.82 ± 2.33^****$$$ %
Rate of change of lymphocytes in blood after administration (%) (blood lymphocytes; 1.0 mg/kg single oral, 4 h): −71.25 ± 1.93 %
maximum decreasing rate of the number of blood lymphocytes (blood lymphocytes; 1.0 mg/kg single oral, 8 h): 83.09%
Percentage of lymphocytes in white blood cells in a unit volume of blood (%) (blood lymphocytes; 1.0 mg/kg single oral, 8 h): 29.89 ± 2.56^****$$$$ %
Rate of change of lymphocytes in blood after administration (%) (blood lymphocytes; 1.0 mg/kg single oral, 8 h): −83.09 ± 1.25 %
blood lymphocyte decreasing rate (blood lymphocytes; 1.0 mg/kg single oral, 24 h): 0.22%
Percentage of lymphocytes in white blood cells in a unit volume of blood (%) (blood lymphocytes; 1.0 mg/kg single oral, 24 h): 61.62 ± 1.61%
Rate of change of lymphocytes in blood after administration (%) (blood lymphocytes; 1.0 mg/kg single oral, 24 h): −0.22 ± 6.87^**#$$ %
Percentage of lymphocytes in white blood cells in a unit volume of blood (%) (blood lymphocytes; [4]): 59.49 ± 1.01%
Percentage of lymphocytes in white blood cells in a unit volume of blood (%) (blood lymphocytes; 3.0 mg/kg single oral, 4 h): 34.03 ± 3.81^****#$$$$ %
Rate of change of lymphocytes in blood after administration (%) (blood lymphocytes; 3.0 mg/kg single oral, 4 h): −78.97 ± 0.91 %
maximum decreasing rate of the number of blood lymphocytes (blood lymphocytes; 3.0 mg/kg single oral, 8 h): 85.92%
Percentage of lymphocytes in white blood cells in a unit volume of blood (%) (blood lymphocytes; 3.0 mg/kg single oral, 8 h): 26.19 ± 2.81^****$$$$ %
Rate of change of lymphocytes in blood after administration (%) (blood lymphocytes; 3.0 mg/kg single oral, 8 h): −85.92 ± 1.26 %
blood lymphocyte decreasing rate (blood lymphocytes; 3.0 mg/kg single oral, 24 h): 55.15%
Percentage of lymphocytes in white blood cells in a unit volume of blood (%) (blood lymphocytes; 3.0 mg/kg single oral, 24 h): 57.05 ± 2.49%
Rate of change of lymphocytes in blood after administration (%) (blood lymphocytes; 3.0 mg/kg single oral, 24 h): −55.15 ± 3.32^****$$$$& %
Percentage of lymphocytes in white blood cells in a unit volume of blood (%) (blood lymphocytes; 3.0 mg/kg single oral, −0.5 h (before administration)): 62.35 ± 2.26%
Injury area (cm^2) [2, 5]: 6.09 ± 0.94 cm^2
Ulcer area (cm^2) [2, 5]: 2.42 ± 0.66 cm^2
Injury area (cm^2) [2, 6]: 5.34 ± 0.90 cm^2
Ulcer area (cm^2) [2, 6]: 2.18 ± 0.84 cm^2
Injury area (cm^2) [2, 7]: 3.42 cm^2 and 3.42 ± 0.73* cm^2
Ulcer area (cm^2) [2, 7]: 0.94 ± 0.55 cm^2
symptoms of colon ulcers and edema (dissection at the end of the experiment) ([2]; 0.6 mg/kg, compared to the model group): reduced compared to the model group
Inflammation score ([2]; 0.1 mg/kg): 3.57 ± 0.20
Total injury score ([2]; 0.1 mg/kg): 6.14 ± 0.40
Ulcer score ([2]; 0.1 mg/kg): 2.57 ± 0.20
Inflammation score ([2]; 0.3 mg/kg): 3.57 ± 0.37
Total injury score ([2]; 0.3 mg/kg): 6.14 ± 0.63
Ulcer score ([2]; 0.3 mg/kg): 2.57 ± 0.30

Appearance [3, 8]: White powder
Content (%) [3, 8]: 101.4%
Total Impurity (%) [3, 8]: 0.31%
Appearance [3, 9]: White powder
Content (%) [3, 9]: 98.8%
Total Impurity (%) [3, 9]: 0.34%
Appearance [3, 10]: White powder
Content (%) [3, 10]: 101.8%
Total Impurity (%) [3, 10]: 0.32%
amount of total impurity (change over the test) ([3]; 40° C./75% humidity (open), up to 3 months vs day 0): did not increase
Appearance ([3]; Initial, 0 month): White powder
Content (%) ([3]; Initial, 0 month): 101.6%
Total Impurity (%) ([3]; Initial, 0 month): 0.33%
SMILES: CC(C)Oc1ccc(-c2nc(-c3cccc4c3C[C@@H]3CC(=O)N(CCO)[C@H]43)no2)cc1C#N [Crystal Form A]

clearance [1]: 46.3 mL/min/kg
bioavailability [1]: 41.6%
AUC [1]: 1.12 µM·h
half-life [1]: 5.24 h
SMILES: CC(C)Oc1ccc(-c2nc(-c3cccc4c3CC[C@@H]4NCCO)no2)cc1C#N [Ozanimod, reference compound]
Percentage of lymphocytes in white blood cells in a unit volume of blood (%) (blood lymphocytes; 1.0 mg/kg single oral, 4 h): 44.53 ± 3.75 %
Rate of change of lymphocytes in blood after administration (%) (blood lymphocytes; 1.0 mg/kg single oral, 4 h): −71.79 ± 2.51 %
maximum decreasing rate of the number of blood lymphocytes (blood lymphocytes; 1.0 mg/kg single oral, 8 h): 84.39%
Percentage of lymphocytes in white blood cells in a unit volume of blood (%) (blood lymphocytes; 1.0 mg/kg single oral, 8 h): 35.69 ± 2.47^****$ %
Rate of change of lymphocytes in blood after administration (%) (blood lymphocytes; 1.0 mg/kg single oral, 8 h): −84.39 ± 1.16 %
blood lymphocyte decreasing rate (blood lymphocytes; 1.0 mg/kg single oral, 24 h): 47.26%
Percentage of lymphocytes in white blood cells in a unit volume of blood (%) (blood lymphocytes; 1.0 mg/kg single oral, 24 h): 58.63 ± 2.17%
Rate of change of lymphocytes in blood after administration (%) (blood lymphocytes; 1.0 mg/kg single oral, 24 h): −47.26 ± 4.34 %
Percentage of lymphocytes in white blood cells in a unit volume of blood (%) (blood lymphocytes; [4]): 58.67 ± 1.61%
Injury area (cm^2) [2, 6]: 4.76 ± 0.33 cm^2
Ulcer area (cm^2) [2, 6]: 1.12 ± 0.31 cm^2
Injury area (cm^2) [2, 11]: 4.60 ± 0.71 cm^2
Ulcer area (cm^2) [2, 11]: 1.36 ± 0.48 cm^2
Inflammation score ([2]; 0.3 mg/kg): 3.71 ± 0.42
Total injury score ([2]; 0.3 mg/kg): 6.29 ± 0.75
Ulcer score ([2]; 0.3 mg/kg): 2.57 ± 0.37
Inflammation score ([2]; 1.0 mg/kg): 3.43 ± 0.30
Total injury score ([2]; 1.0 mg/kg): 6.00 ± 0.58
Ulcer score ([2]; 1.0 mg/kg): 2.57 ± 0.30

SMILES: C[C@]12C=CC(=O)C=C1CC[C@@H]1[C@@H]2[C@@H](O)C[C@@]2(C)[C@H]1CC[C@]2(O)C(=O)CO [Prednisolone]
Injury area (cm^2) [2, 12]: 4.45 ± 0.82 cm^2
Ulcer area (cm^2) [2, 12]: 1.58 ± 0.53 cm^2
colon ulcers (dissection at the end of the experiment) ([2]; 10 mg/kg, compared to the model group): not reduced
Inflammation score ([2]; 10 mg/kg): 3.00 ± 0.33
Total injury score ([2]; 10 mg/kg): 5.00 ± 0.63
Ulcer score ([2]; 10 mg/kg): 2.00 ± 0.38
